Source: patent EP2518071A1, “Imidazopyridine derivatives as PI3K inhibitors” (Almirall, S.A., priority 2011, dated 2012)

Each compound was assayed against T1, PI3Kδ (PI3Kd) (Homo sapiens, UniProt O00329) (assay: PI3K HTRF enzymatic inhibition assay (cell-free, Millipore kit), PI3Kd isoform). Conditions: recombinant PI3Kd 0.60 nM, PIP2 2 µM, ATP 20 µM, incubation 8 minutes.
T1 construct: purchased Millipore
Format: biochemical
Description: Compounds were screened for their ability to inhibit PI3Kα (PI3Ka), PI3Kβ (PI3Kb), PI3Kδ (PI3Kd) and PI3Kγ (PI3Kg) using a cell-free based P13K HTRF™ assay (Millipore, ref. #33-017) All reagents to perform the reactions were prepared according to the manufacturer protocol. All PI3K enzymes were recombinant and were purchased at Millipore.
All four assays were performed according to the following procedure: • 1) Dilution curves of compounds were done in 100% DMSO and dispensed in a reservoir plate, typically from column 2 to 11. Column 1 and 12 were used for the negative controls (100% inhibition using a reference PI3K inhibitor for the four isoforms) and the positive controls (0% inhibition using dimethyl sulfoxide (DMSO) only). • 2) Mix of Phosphoinositide 3-kinase (PI3K) + Phosphatidylinositol 4,5-bisphosphate (PIP2) was diluted in buffer (supplied with the kit) and plated in a medium binding black 96-well plate (Greiner ref. #675076) PI3Ka was diluted at 0.25 nM with PIP2 at 2 µM; PI3Kb was diluted at 0.50 nM with PIP2 at 5 µM; PI3Kd was diluted at 0.60 nM with PIP2 at 2 µM and PI3Kg was diluted at 0.30 nM with PIP2 at 10 µM. These concentrations were final in the assay. • 3) A reservoir plate containing Adenosine TriPhosphate (ATP) diluted in the Millipore kit buffer was prepared for each isoform. The final concentration of ATP in the assay was 10 µM, 15 µM, 20 µM and 10 µM for PI3Ka, PI3Kb, PI3Kd and PI3Kg respectively. • 4) Reactions were started by addition to the PI3K+PIP2 plates of the ATP and compounds simultaneously. Incubation was done for 8 minutes (for all four isoforms) then the reaction was stopped by addition of the Stop solution. The Detection solution was added. These solutions were prepared previously according to the kit specifications. The plates were then incubated overnight at RT before reading the signal in an Envision (PerkinElmer), with excitation at 340 nm and emissions at 620 and 665 nm. • 5) Data obtained from the compound curves were normalized in respect to the negative and positive controls, and then fitted by a 4-parameter log curve in ActivityBase (IDBS) in order to determine their potency.

T1 sequence (O00329 whole entry, canonical isoform): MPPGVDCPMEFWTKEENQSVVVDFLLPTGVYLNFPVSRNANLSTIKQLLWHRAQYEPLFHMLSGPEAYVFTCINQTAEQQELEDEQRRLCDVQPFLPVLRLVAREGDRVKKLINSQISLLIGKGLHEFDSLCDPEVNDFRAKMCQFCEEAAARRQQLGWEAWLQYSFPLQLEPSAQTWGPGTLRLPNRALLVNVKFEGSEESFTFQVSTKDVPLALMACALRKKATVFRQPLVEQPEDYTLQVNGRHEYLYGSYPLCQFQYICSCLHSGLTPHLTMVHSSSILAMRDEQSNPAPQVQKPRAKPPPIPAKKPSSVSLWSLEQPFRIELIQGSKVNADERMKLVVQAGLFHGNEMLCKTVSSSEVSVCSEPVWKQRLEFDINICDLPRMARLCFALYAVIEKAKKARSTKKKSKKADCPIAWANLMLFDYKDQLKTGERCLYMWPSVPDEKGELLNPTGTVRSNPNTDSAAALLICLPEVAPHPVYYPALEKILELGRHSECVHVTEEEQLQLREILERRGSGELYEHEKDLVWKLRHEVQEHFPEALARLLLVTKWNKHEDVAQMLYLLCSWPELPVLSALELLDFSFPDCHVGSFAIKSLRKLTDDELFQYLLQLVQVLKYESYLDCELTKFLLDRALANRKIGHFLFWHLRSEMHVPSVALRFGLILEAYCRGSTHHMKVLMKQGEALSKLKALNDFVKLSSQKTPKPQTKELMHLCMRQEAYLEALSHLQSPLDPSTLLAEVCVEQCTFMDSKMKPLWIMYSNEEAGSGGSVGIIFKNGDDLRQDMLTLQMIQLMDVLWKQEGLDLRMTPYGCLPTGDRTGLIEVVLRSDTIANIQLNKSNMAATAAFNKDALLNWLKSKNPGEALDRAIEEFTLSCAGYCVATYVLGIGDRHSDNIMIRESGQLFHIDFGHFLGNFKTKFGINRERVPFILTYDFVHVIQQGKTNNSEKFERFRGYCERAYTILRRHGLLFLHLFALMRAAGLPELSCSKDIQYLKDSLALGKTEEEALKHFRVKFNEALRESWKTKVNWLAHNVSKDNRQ
T1 sequence (P27986 whole entry partner, canonical isoform): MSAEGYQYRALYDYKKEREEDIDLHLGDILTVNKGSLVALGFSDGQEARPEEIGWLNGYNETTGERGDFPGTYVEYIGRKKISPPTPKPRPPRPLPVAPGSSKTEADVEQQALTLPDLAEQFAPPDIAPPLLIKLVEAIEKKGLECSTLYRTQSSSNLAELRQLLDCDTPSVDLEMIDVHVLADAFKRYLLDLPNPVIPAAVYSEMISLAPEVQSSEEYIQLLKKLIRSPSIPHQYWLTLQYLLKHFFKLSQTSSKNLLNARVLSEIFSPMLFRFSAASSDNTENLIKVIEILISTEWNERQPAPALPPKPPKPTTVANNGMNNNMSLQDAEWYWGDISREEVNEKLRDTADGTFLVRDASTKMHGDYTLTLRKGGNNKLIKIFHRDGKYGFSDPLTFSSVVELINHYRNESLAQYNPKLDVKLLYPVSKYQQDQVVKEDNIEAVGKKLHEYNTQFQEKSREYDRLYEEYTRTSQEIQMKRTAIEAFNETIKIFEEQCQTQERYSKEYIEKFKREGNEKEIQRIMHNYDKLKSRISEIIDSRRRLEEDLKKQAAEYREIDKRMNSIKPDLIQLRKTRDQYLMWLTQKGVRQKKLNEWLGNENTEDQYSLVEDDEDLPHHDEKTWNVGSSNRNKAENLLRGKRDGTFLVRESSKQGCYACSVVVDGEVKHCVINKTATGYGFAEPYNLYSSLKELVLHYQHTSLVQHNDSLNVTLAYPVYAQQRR

Question: With `C[C@H](Nc1nc(N)nc2[nH]cnc12)c1nc2cccnc2n1-c1ccccc1` [Example 9, (S)-N6-(1-(3-Phenyl-3H-imidazo[4,5-b]pyridin-2-yl)ethyl)-9H-purine-2,6-diamine] as the compound, how does the IC50 read?
Answer: 85.9 nM

Question: How did the IC50 turn out when `COc1ccc2nc([C@H](C)Nc3ncnc4[nH]cnc34)n(-c3ccccc3)c2n1` [Example 10, (S)-N-(1-(5-Methoxy-3-phenyl-3H-imidazo[4,5-b]pyridin-2-yl)ethyl)-9H-purin-6-amine] was run?
Answer: 31.6 nM

Question: Which IC50 does the source give for `C[C@H](Nc1ncnc2[nH]cnc12)c1nc2cccnc2n1-c1cc(F)cc(F)c1` [Example 12, (S)-N-(1-(3-(3,5-Difluorophenyl)-3H-imidazo[4,5-b]pyridin-2-yl)ethyl)-9H-purin-6-amine] here?
Answer: 188 nM

Question: For `CC[C@H](Nc1ncnc2[nH]cnc12)c1nc2ccc(OC)nc2n1-c1ccccc1` [Example 14, (S)-N-(1-(5-Methoxy-3-phenyl-3H-imidazo[4,5-b]pyridin-2-yl)propyl)-9H-purin-6-amine], which IC50 is on record?
Answer: 14.4 nM

Question: With `COc1ccc2nc([C@H](C)Nc3ncnc4[nH]cnc34)n(-c3cc(F)cc(F)c3)c2n1` [Example 15, (S)-N-(1-(3-(3,5-Difluorophenyl)-5-methoxy-3H-imidazo[4,5-b]pyridin-2-yl)ethyl)-9H-purin-6-amine] as the compound, how does the IC50 read?
Answer: 10.9 nM

Question: Which IC50 does the source give for `C[C@H](Nc1ncnc(N)c1C#N)c1nc2cccnc2n1-c1ccccc1` [Example 19, (S)-4-Amino-6-(1-(3-phenyl-3H-imidazo[4,5-b]pyridin-2-yl)ethylamino)pyrimidine-5-carbonitrile] here?
Answer: 132 nM

Question: For `COc1ccc2nc([C@H](C)Nc3ncnc(N)c3C#N)n(-c3ccccc3)c2n1` [Example 21, (S)-4-Amino-6-(1-(5-methoxy-3-phenyl-3H-imidazo[4,5-b]pyridin-2-yl)ethylamino)pyrimidine-5-carbonitrile], which IC50 is on record?
Answer: 22.2 nM

Question: With `Cc1ccc2nc([C@H](C)Nc3ncnc(N)c3C#N)n(-c3ccccc3)c2n1` [Example 25, (S)-4-Amino-6-(1-(5-methyl-3-phenyl-3H-imidazo[4,5-b]pyridin-2-yl)ethylamino)pyrimidine-5-carbonitrile] as the compound, how does the IC50 read?
Answer: 52.1 nM

Question: How did the IC50 turn out when `Cc1ccc2nc([C@H](C)Nc3ccnc4ccnn34)n(-c3ccccc3)c2n1` [Example 26, (S)-N-(1-(5-Methyl-3-phenyl-3H-imidazo[4,5-b]pyridin-2-yl)ethyl)pyrazolo[1,5-a]pyrimidin-7-amine] was run?
Answer: 693 nM

Question: How did the IC50 turn out when `C[C@H](Nc1ncnc2[nH]cnc12)c1nc2cc(F)cnc2n1-c1ccccc1` [Example 37, N-[(1S)-1-(6-Fluoro-3-phenyl-3H-imidazo[4,5-b]pyridin-2-yl)ethyl]-9H-purin-6-amine] was run?
Answer: 165 nM

Question: For `C[C@H](Nc1ncnc2[nH]cnc12)c1nc2cccnc2n1-c1ccccc1Cl` [Example 39, N-{(1S)-1-[3-(2-Chlorophenyl)-3H-imidazo[4,5-b]pyridin-2-yl]ethyl}-9H-purin-6-amine], which IC50 is on record?
Answer: 215 nM

Question: `C[C@H](Nc1ncnc2[nH]cnc12)c1nc2ncccc2n1-c1ccccc1` [Example 43, (S)-N-(1-(1-Phenyl-1H-imidazo[4,5-b]pyridin-2-yl)ethyl)-9H-purin-6-amine] was tested. Which IC50 did it give?
Answer: 1800 nM
